{"source": "patent US20220265759A1", "about": "“COMPOSITION AND METHOD FOR PROMOTING WOUND HEALING” (THE BOARD OF TRUSTEES OF THE UNIVERSITY OF ILLIOIS, priority 2019, published 2022)", "key": {"[1]": {"target": "T1, CCR10-eNOS interaction (Mus musculus, UniProt Q9JL21)", "T1 construct": "cells or mouse wounds were collected after treatment, and lysed in 2% ODG in Tris buffer; tissue Jackson Laboratory; host or cells: dorsal skin wounds of WT C57BL/6 or db/db mice", "T1 sequence (Q9JL21 1-362)": "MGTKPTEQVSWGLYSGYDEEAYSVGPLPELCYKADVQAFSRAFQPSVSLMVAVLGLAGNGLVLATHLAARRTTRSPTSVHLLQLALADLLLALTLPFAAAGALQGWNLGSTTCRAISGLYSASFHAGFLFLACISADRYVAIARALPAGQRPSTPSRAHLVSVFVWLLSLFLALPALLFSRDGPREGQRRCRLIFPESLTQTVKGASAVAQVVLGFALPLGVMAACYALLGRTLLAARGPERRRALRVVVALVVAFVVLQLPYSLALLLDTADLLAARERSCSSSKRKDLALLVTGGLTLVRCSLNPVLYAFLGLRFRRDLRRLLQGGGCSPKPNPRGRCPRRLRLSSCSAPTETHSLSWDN", "test": "Co-IP of CCR10-eNOS interaction in WT mouse wounds", "format": "in vivo, WT C57BL/6 mice", "details": "day 7, 50 μM", "excerpt": "(§1) Co-IP Experiments, cells or mouse wounds were collected after treatment, and lysed in 2% ODG in Tris buffer. The homogenates were further prepared for Co-IP experiments as described in the art (Chen, et al. (2018) Mol. Biol. Cell 29(10):1190-1202; Chen, et al. (2020) FASEB J. 34(4):5838-5850; Chen, et al. (2015) Ann. Rheum. Dis. 74:1898-1906)."}, "[2]": {"system": "cell viability", "test": "Cell viability", "format": "cell-based"}, "[3]": {"target": "T2, CaM-eNOS binding (Homo sapiens, UniProt P0DP23)", "T2 construct": "endogenous in cells", "test": "Co-IP of eNOS-CaM binding in endothelial cells", "format": "cell-based", "details": "pretreatment, 5-minute treatment with 500 ng/ml CCL28", "excerpt": "as §1\nIt has been reported that calmodulin (CaM) binding to bovine eNOS occurs at residues 493-[…]-512 (SEQ ID NO:2) (Venema, et al. (1996) J. Biol. Chem. 271(11):6435-6440; Venema, et al. (1995) J. Biol. Chem. 270:14705-14711). Therefore, using Co-IP, it was assessed whether Myr-CBD7 affects eNOS-CaM binding."}, "[4]": {"system": "eNOS", "test": "eNOS protein level in WT mouse wounds", "format": "in vivo, WT C57BL/6 mice", "details": "day 7, compared to control peptide"}, "[5]": {"system": "eNOS and CCR10 interaction with LAMP1", "test": "eNOS internalization and degradation in HDMVECs stimulated with CCL28 (Co-IP with LAMP1, confocal microscopy)", "format": "cell-based, human", "method": "as §1\nConfocal Microscopy. For cellular immunostaining, confluent monolayers of cells grown on coverslips were prepared as described previously (Chen, et al. (2012) Mel. Biol. Cell 23(7):1388-1398). Fluorescent images were obtained using a Zeiss LSM 880 confocal microscope. The co-localization coefficient in specified regions of interest (ROI) were determined using Zeiss Zen software. Briefly, using the Overlay tool, the desired ROI was drawn along the cell edge and the values for the ROIs tabulated. The scatterplot and table were automatically adjusted to the pixel distribution for the selected ROI. The data from different treatment groups were collected and analyzed for statistical significance as described previously (Chen, et al. (2020) FASEB J. 34(4):5838-5850). […]\nSince myristoylated 7 amino acid CCR10-binding domain (Myr-CBD7) peptide can block eNOS interaction with CCR10 and increase eNOS activity in HUVECs, it was assessed whether Myr-CBD7 can prevent eNOS internalization and degradation in HDMVECs following CCL28 stimulation. […]"}, "[6]": {"target": "T3, CCR10-eNOS interaction (Homo sapiens, UniProt P46092)", "T3 construct": "host or cells: HUVEC (primary human umbilical vein endothelial cells)", "T3 sequence (P46092 1-362)": "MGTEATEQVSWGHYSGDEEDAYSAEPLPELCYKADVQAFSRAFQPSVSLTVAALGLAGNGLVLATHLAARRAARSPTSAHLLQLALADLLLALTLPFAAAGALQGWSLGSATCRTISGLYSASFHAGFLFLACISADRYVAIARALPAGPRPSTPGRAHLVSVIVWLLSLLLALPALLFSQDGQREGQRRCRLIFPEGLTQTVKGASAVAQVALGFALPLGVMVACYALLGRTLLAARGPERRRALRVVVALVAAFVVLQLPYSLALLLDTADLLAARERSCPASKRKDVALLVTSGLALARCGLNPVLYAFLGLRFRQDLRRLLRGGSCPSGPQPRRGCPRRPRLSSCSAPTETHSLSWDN", "test": "Co-IP of CCR10-eNOS interaction in HUVECs stimulated with A23187", "format": "cell-based", "details": "endothelial cells (HUVECs), pretreatment 50 μM, 5 μM A23187 for 5 minutes, vs control peptide", "method": "Immunoblot and Co-Immunoprecipitation (Co-IP). After serum starvation, inhibitors were added 45 minutes prior to stimulation for indicated times at 37° C., and cells were then collected and lysed for western blot analysis. After probing for p-eNOS (Ser1177), p-p85 (Tyr458), p-Src (Tyr 416), and p-ERK (T202/Y204), the same blots were stripped and re-probed for total proteins mentioned above. For detection of CCL28-induced protein levels of β-catenin and Bcl-2, near-confluent endothelial cells were incubated with 500 ng/ml CCL28 for 24 hours in EGM-2 medium containing 1% FBS.\nas §1\nTherefore, the effect of inhibition of CCR10-eNOS interaction was investigated using a panel of cell-permeable peptides based on the sequence of the predicted interaction domain on eNOS. Similar peptides have been described in determining the solution structure of calmodulin bound to the target peptide of eNOS (Piazza, et al. (2014) Biochemistry 53(8):1241-9; Piazza, et al. (2016) Biochemistry 55(42):5962-71). First, myristoylated 20 amino acid peptide (491-[…]-510 (P1); SEQ ID NO:61) was synthesized based on the sequence of human eNOS (which is conserved in mouse eNOS). […] It was subsequently determined whether truncated versions of the CBD-derived peptide would have the same effect."}}, "note": "Peptide text beside a SMILES is read from it. * marks the point of attachment. Myristoyl = CCCCCCCCCCCCCC(=O)*", "data": [{"smiles": "CCCCCCCCCCCCCC(=O)N[C@@H](CCCCN)C(=O)N[C@H](C(=O)N[C@@H](CO)C(=O)N[C@@H](C)C(=O)N[C@@H](CO)C(=O)N[C@@H](CC(C)C)C(=O)N[C@@H](CCSC)C(=O)O)[C@@H](C)CC", "note": "[Myr-CBD7, myr-KISASLM] (Myristoyl-KISASLM-OH)", "values": [{"measurement": "CCR10-eNOS interaction in wounds (Co-IP)", "setting": "[1]", "result": "reduced"}, {"measurement": "concentration without adversely affecting cell viability", "setting": "[2]", "result": "up to 100 μM"}, {"measurement": "CaM-eNOS binding (Co-IP)", "setting": "[3]", "result": "no effect"}, {"measurement": "eNOS protein level in wounds", "setting": "[4]", "result": "enhanced"}, {"measurement": "eNOS interaction with LAMP1", "setting": "[5]; HDMVECs, pretreatment, CCL28 stimulation, compared to scrambled control peptide", "result": "prevented"}, {"measurement": "eNOS localization (confocal microscopy)", "setting": "[5]; pretreatment prior to CCL28 for 3 hours", "result": "remained on the plasma membrane"}, {"measurement": "CCR10-eNOS interaction (Co-IP)", "setting": "[6]", "result": "significant reduction"}, {"measurement": "CCR10-eNOS interaction (Co-IP)", "setting": "[6]; listed as P4", "result": "completely blocked"}]}]}
